Assay results as given in patent US20130261133A1, “Therapeutic Compounds for Protozoal and Microbial Infections and Cancer” (THE UNIVERSITY OF MONTANA, priority 2012, published 2013).
“And” between values parts separate entries of the source, which are not always exact repeats. Equal values may be shown once. Read-outs that look alike come from different tables or passages of the source.

How the values were obtained:
P. aeruginosa = test: MIC broth microdilution, Alamar Blue; format: cell-based; conditions: minimum inhibitory concentration
Leishmania donovani = test: Antileishmanial assay, Leishmania in infected macrophages (L. donovani); conditions: for IC50: Leishmania donovani, Macrophage, read-out: IC50 Leishmania in infected macrophages; for Selectivity Index: IC50 for HepG2 cells/IC50 for Leishmania donovani
[1] = system: P. falciparum clone W2/Indochina; test: In vitro malaria assay, [3H]-hypoxanthine incorporation; format: cell-based; conditions: Plasmodium falciparum, W2, 72 h, read-out: IC50 Plasmodium
Protocol: a. In vitro Parasite Culturing: P. falciparum clone W2/Indochina was grown in continuous culture using RPMI 1640 media containing 10% heat-inactivated type A+ human plasma, sodium bicarbonate (2.4 g/L), HEPES (5.94 g/L) and 4% washed human type A+ erythrocytes. Cultures were gassed with a 90% N2, 5% O2 and 5% CO2 mixture followed by incubation at 37° C. b. Assay Preparation: Test compounds at 5 mg/mL in DMSO were diluted 1:500 and then serially diluted in duplicate over 11 concentrations. P. falciparum cultures with >70% ring stage parasites were diluted to 0.5-0.7% parasitemia and 1.5% hematocrit in RPMI 1640 media. In 96-well plates a volume of 90 μl/well of parasitized erythrocytes was added on top of 10 μL/well of the test compound. A separate plate containing chloroquine, dihydroartemisinin and atovaquone was added to each set of assay plates as control drugs. A Beckman Coulter Biomek 3000 was used to dispense test compounds, control drugs and parasitized erythrocytes into the microtiter plates. Positive and negative controls were included in each plate. Positive controls consisted of parasitized erythrocytes and negative controls consisted of non-parasitized erythrocytes at 1.5% hematocrit in RPMI 1640 media. Assay plates were placed into a modulator incubator chamber and equilibrated with 90% N2, 5% O2 and 5% CO2 mixture then incubated at 37° C. for 48 hours. After 48 hours, approximately 0.05 μCi of [^3H]-hypoxanthine monohydrochloride was added to each well of the assay plates. Plates were put back into the modulator incubation chamber, gassed with the 90% N2, 5% O2 and 5% CO2 mixture then incubated at 37° C. for an additional 24 hours. After 72 hours total incubation time the plates were frozen at −80° C. until later processed for parasite growth determinations. c. Assay Plate Processing: Assay plates were harvested using a Perkin Elmer FilterMate Harvester. The incorporation of [^3H]-hypoxanthine into nucleic acid was measured using a Perkin Elmer Topcount NXT Microplate Scintillation & Luminescence Counter. d. Data Analysis: Data analysis was performed using a custom database manager (Dataspects, Inc). Nonlinear regression analysis was used to calculate EC50.

C. albicans = test: MIC broth microdilution, Alamar Blue; format: cell-based; conditions: minimum inhibitory concentration
S. aureus 13709 = test: MIC broth microdilution, Alamar Blue; format: cell-based; conditions: minimum inhibitory concentration
E. faecalis = test: MIC broth microdilution, Alamar Blue; format: cell-based; conditions: minimum inhibitory concentration
B. subtilis = test: MIC broth microdilution, Alamar Blue; format: cell-based; conditions: minimum inhibitory concentration
B. anthracis = format: cell-based; conditions: minimum inhibitory concentration
C. glabrata = test: MIC broth microdilution, Alamar Blue; format: cell-based; conditions: minimum inhibitory concentration
S. pyogenes = test: MIC broth microdilution, Alamar Blue; format: cell-based; conditions: minimum inhibitory concentration
Leishmania amazonensis = test: Antileishmanial assay, Leishmania in infected macrophages (L. amazonensis); conditions: Leishmania amazonensis; for IC50: Macrophage, read-out: IC50 Leishmania in infected macrophages
HepG2 cells = test: Cytotoxicity against human liver (HepG2) cells, Alamar Blue; format: cell-based
Protocol: Several of these analogues were also evaluated for cytotoxicity against human liver (HepG2) cells. Of particular interest was that compounds 47 and 48 were approximately an order of magnitude less cytotoxic as compared to compound 1.
Adherent cell lines were maintained in Eagle's Minimal Essential Media (Sigma-Aldrich, St. Louis, Mo., USA) with 2 mM glutamine and Earle's Balanced Salt Solution (HyClone, Logan, Utah, USA) adjusted to contain 1.5 g/L sodium bicarbonate, 0.1 mM non-essential amino acids, 1 mM sodium pyruvate and 10% fetal calf serum. Fetal calf serum used in these assays was lot matched throughout. All cultures were maintained under a humidified 5% CO2 atmosphere at 37° C., had media refreshed twice weekly and were subcultured by trypsinization and resuspension at a ratio of 1:5 each week. Toxicity assays were conducted between passages 10-20. Target compound toxicity was measured by incubating the test compound with the cells for 4 hours, washing the cells and finally treating the cells with Alamar Blue. After 12-24 hours, the fluorescence of the reduced dye was measured. Fluorescence intensity as a function of test compound concentration was fit to the Fermi equation, using non-linear least squares regression analysis, to estimate IC50 values.

[2] = Body and organ weights of infected, treated BALB/c mice; format: in vivo; conditions: for Body weight / Mean body weight of mice Post-treatment: 10 mg/kg i.p.; for Body weight: individual mice, Table 4; for Mean body weight of mice Post-treatment / Mean body weight of mice Pre-treatment: group mean; for Mean body weight of mice Pre-treatment: pre-treatment (baseline)
Protocol: (§1) Compounds 47, 48, and 50 were then evaluated in animal studies with BALB/c mice with leishmaniasis. Compounds were delivered via i.p. injection at 10 mg/kg, with untreated, vehicle, and miltefosine controls as described in Table 2. […] Miltefosine, the only oral treatment currently available to treat leishmaniasis in humans, was also evaluated in the BALB/c mice for comparison purposes.

[3] = system: leishmaniasis (LV82 PM infection), liver parasitemia; test: In vivo efficacy: liver parasitemia in BALB/c mice with leishmaniasis; conditions: 10 mg/kg i.p.; for LDU mean ± SD: group mean, n=4; for % Reduction (Average) in liver parasitemia: infected BALB/c mice; for # of amastigotes per 200 nuclei: liver; for # of amastigotes per 200 nuclei / LDU: individual mice; for LDU: total liver parasitemia
Protocol: The following protocols were used to prepare the various treatments described in Table 2: • a. Miltefosine ([…] stock solution in sterile PBS): 7.5 mg miltefosine was weighed and put in a eppendorf tube, then 0.75 mL of sterile PBS was added. After vortexing, a clear solution was formed. Make 1 mg/mL solution daily by diluting 100 μL of 10 mg/mL miltefosine solution in 900 μL sterile PBS. • b. Vehicle control: 5% (v/v) DMSO, 50% (v/v) PEG 400, 10% (v/v) Ethanol, and 35% (v/v) distilled water. • c. Compound 47 (2 mg/mL solution of compound 47 in PEG 400/Ethanol vehicle): […]. Dilute the above solution 1:20 with PEG 400/EtOH/water daily. After vortexing and warming up at 37° C. for 30 min., a clear solution formed. • d. Compound 48 (2 mg/mL solution of compound 48 in PEG 400/Ethanol vehicle): 6.8 mg of compound 48 was dissolved in 0.17 mL of DMSO to make a 40 mg/mL stock solution. After vortexing, a yellowish-brown solution was formed. Diluted the above solution 1:20 with PEG 400/EtOH/water daily. After vortexing a clear solution formed. • e. Compound 50 (2 mg/mL solution of compound 50 in PEG 400/Ethanol vehicle): 8.4 mg of compound 50 was dissolved in 0.21 mL of DMSO to make a 40 mg/mL stock solution. After vortexing, a dark yellowish-brown solution was formed. Diluted the above solution 1:20 with PEG 400/EtOH/water. After vortexing a clear solution formed.
as §1

[4] = HepG2, read-out: IC50 mammalian HepG2 cells

C=C[C@@H](C#CC#C[C@H](O)CCCCCCCCCCCCCCC)OC(C)=O (stereo in doubt) [Compound 44, (3S,8R)-8-hydroxytricosa-1-en-4,6-diyn-3-yl acetate]
MIC P. aeruginosa (P. aeruginosa): >1000
IC50 (Leishmania donovani): 287 nM
IC50 [1]: 2.14 µg/mL
MIC C. albicans (C. albicans): >1000
MIC S. aureus (S. aureus 13709): >1000
MIC E. faecalis (E. faecalis): >1000
MIC B. subtilis (B. subtilis): >1000
MIC B. anthracis (B. anthracis): >1000
MIC C. glabrata (C. glabrata): >1000
MIC S. pyogenes (S. pyogenes): >1000

C=C[C@H](C#CC#C[C@H](O)CCCCCCCCC)OC(C)=O [Compound 2, (3R,8R)-8-hydroxyheptadeca-1-en-4,6-diyn-3-yl acetate]
IC50 [1]: 8.07 µg/mL
anti-Leishmanial activity at 10 μM (Leishmania amazonensis): no anti-Leishmanial activity
IC50 (Leishmania amazonensis): > 10 µM

C=C[C@H](C#CC#C[C@@H](O)CCCCCCCCC)OC(C)=O [Compound 3, (3R,8S)-8-hydroxyheptadeca-1-en-4,6-diyn-3-yl acetate]
IC50 [1]: 8.15 µg/mL
anti-Leishmanial activity at 10 μM (Leishmania amazonensis): no anti-Leishmanial activity
IC50 (Leishmania amazonensis): > 10 µM

C=C[C@@H](C#CC#C[C@H](O)CCC)OC(C)=O [Compound 20, (3S,8R)-8-hydroxyundeca-1-en-4,6-diyn-3-yl acetate]
MIC P. aeruginosa (P. aeruginosa): >1000
Selectivity Index (Leishmania donovani): 290
IC50 (Leishmania donovani): 197 nM
IC50 [1]: 9.18 µg/mL
IC50 (HepG2 cells; [4]): 57 ± 2 µM
MIC C. albicans (C. albicans): 250
MIC S. aureus (S. aureus 13709): 1000
MIC E. faecalis (E. faecalis): 1000
MIC B. subtilis (B. subtilis): 250
MIC B. anthracis (B. anthracis): 1000
MIC C. glabrata (C. glabrata): 250
MIC S. pyogenes (S. pyogenes): 250

C=C[C@@H](C#CC#C[C@H](N)CCCCCCCCC)OC(C)=O [Compound 45, (3S,8R)-8-aminoheptadeca-1-en-4,6-diyn-3-yl acetate]
MIC P. aeruginosa (P. aeruginosa): >1000
MIC C. albicans (C. albicans): 250
MIC S. aureus (S. aureus 13709): 1000
MIC E. faecalis (E. faecalis): 1000
MIC B. subtilis (B. subtilis): 250
MIC B. anthracis (B. anthracis): 250
MIC C. glabrata (C. glabrata): 500
MIC S. pyogenes (S. pyogenes): 250

C=C[C@@H](C#CC#C[C@@H](CCCCCCCCC)NS(C)(=O)=O)OC(C)=O [Compound 46, (3S,8R)-8-(methylsulfonamido)heptadeca-1-en-4,6-diyn-3-yl acetate]
MIC P. aeruginosa (P. aeruginosa): >1000
Selectivity Index (Leishmania donovani): 530
IC50 (Leishmania donovani): 55 nM
IC50 [1]: 4.47 µg/mL
IC50 (HepG2 cells; [4]): 29 ± 1 µM
MIC C. albicans (C. albicans): >1000
MIC S. aureus (S. aureus 13709): >1000
MIC E. faecalis (E. faecalis): >1000
MIC B. subtilis (B. subtilis): 4
MIC B. anthracis (B. anthracis): >1000
MIC C. glabrata (C. glabrata): >1000
MIC S. pyogenes (S. pyogenes): 8

C=C[C@@H](C#CC#C[C@@H](CCCCCCCCC)NC(=O)c1ccccc1)OC(C)=O [Compound 47, (3S,8R)-8-benzamidoheptadeca-1-en-4,6-diyn-3-yl acetate]
Body weight [2]: 18.3 g (2×) and 19.5 g and 18.2 g
Mean body weight of mice Post-treatment [2]: 18.6 g
Mean body weight of mice Pre-treatment [2]: 19.2 g
MIC P. aeruginosa (P. aeruginosa): >1000
Selectivity Index (Leishmania donovani): 14,000
IC50 (Leishmania donovani): 35 nM
LDU mean ± SD [3]: 2979.6
% Reduction (Average) in liver parasitemia [3]: 26.0%
% Reduction (Average) in liver parasitemia ([3]; listed as compound 47): 26%
# of amastigotes per 200 nuclei [3]: 596 and 543 and 595 and 582
LDU [3]: 2960.3 and 2834.7 and 2961.0 and 3162.3
IC50 [1]: 4.85 µg/mL
IC50 (HepG2 cells; HepG2, read-out: IC50 against the HepG2 cell line): 486 ± 14 µM
IC50 (HepG2 cells; [4]): 486 ± 14 µM
MIC C. albicans (C. albicans): >1000
MIC S. aureus (S. aureus 13709): >1000
MIC E. faecalis (E. faecalis): >1000
MIC B. subtilis (B. subtilis): >1000
MIC B. anthracis (B. anthracis): >1000
MIC C. glabrata (C. glabrata): >1000
MIC S. pyogenes (S. pyogenes): >1000

C=C[C@@H](C#CC#C[C@@H](CCCCCCCCC)OS(C)(=O)=O)OC(C)=O [Compound 49, (3S,8R)-8-((methylsulfonyl)oxy)heptadeca-1-en-4,6-diyn-3-yl acetate]
MIC P. aeruginosa (P. aeruginosa): >1000
IC50 (Leishmania donovani): 61 nM
IC50 [1]: 2.13 µg/mL
MIC C. albicans (C. albicans): >1000
MIC S. aureus (S. aureus 13709): 250
MIC E. faecalis (E. faecalis): 500
MIC B. subtilis (B. subtilis): 250
MIC B. anthracis (B. anthracis): 250
MIC C. glabrata (C. glabrata): >1000
MIC S. pyogenes (S. pyogenes): 125

CCCCCCCCCCCCCCCCOP(=O)([O-])OCC[N+](C)(C)C [Miltefosine, reference compound]
Body weight [2]: 18.3 g and 18.0 g and 17.1 g and 20.0 g
Mean body weight of mice Post-treatment [2]: 18.4 g
Mean body weight of mice Pre-treatment [2]: 18.4 g
LDU mean ± SD [3]: 87.0
% Reduction (Average) in liver parasitemia [3]: 98% and 97.8%
# of amastigotes per 200 nuclei [3]: 22 and 13 and 8 and 24
LDU [3]: 109.6 and 67.7 and 35.9 and 134.9
